This is an account of results in patent publication US7161029B2, “DiL-lysine monosulfate trihydrate crystal and method of making” (Ajinomoto Co., Inc., priority 2003, dated 2007).

The conditions of data set [1]: temperature range at which the trihydrate precipitates (35° C. and below).
The next data set deals with Piglets. The settings on record: compared with L-lysine hydrochloride; cited from earlier work.

Regarding `NCCCC[C@H](N)C(=O)O.NCCCC[C@H](N)C(=O)O.O.O.O.O=S(=O)(O)O` [diL-lysine monosulfate trihydrate], the “degree of solubility in water versus the solubility curve of anhydrous diL-lysine sulfate (FIG. 4)” value in data set [1] is “lower than the degree of solubility that would be anticipated from the solubility curve of anhydrous diL-lysine sulfate”.

Consider `NCCCC[C@H](N)C(=O)O.NCCCC[C@H](N)C(=O)O.O=S(=O)(O)O` [diL-lysine sulfate], for which, in the data set with Piglets, the feed effects entry is “equivalent to those of L-lysine hydrochloride”.
